# Where a chain is given by its changes, count along the chain named. Names may count otherwise.
# T1: TK2-N93D/L109F (Homo sapiens, UniProt O00142, L109F/N93D)
# T1 construct: hexahistidine (N, cleaved yes); SUMO (N, cleaved yes); made in house; host or cells: Escherichia coli BL21 (DE3) C41, modified pET14b
# T1 sequence (O00142 51-265 N93D/L109F): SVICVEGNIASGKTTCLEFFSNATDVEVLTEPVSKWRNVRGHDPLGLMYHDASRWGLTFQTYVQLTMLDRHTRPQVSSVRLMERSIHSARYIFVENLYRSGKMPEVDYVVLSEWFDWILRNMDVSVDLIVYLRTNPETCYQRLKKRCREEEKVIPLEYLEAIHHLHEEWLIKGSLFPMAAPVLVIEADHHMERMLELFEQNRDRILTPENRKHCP
# T2: TK2-N93D (Homo sapiens, UniProt O00142, N93D)
# T2 sequence (O00142 51-265 N93D): T1 sequence (O00142 51-265 N93D/L109F) with F59L
# T3: TK2-L109F (Homo sapiens, UniProt O00142, L109F)
# T3 sequence (O00142 51-265 L109F): T1 sequence (O00142 51-265 N93D/L109F) with D43N
# B1: TK2-N93D: truncated human thymidine kinase 2 with N93D point mutation, PET reporter gene product (SEQ ID NO: 3) (protein, listed as Homo sapiens)
# chain: MSVICVEGNIASGKTTCLEFFSNATDVEVLTEPVSKWRNVRGHDPLGLMYHDASRWGLTLQTYVQLTMLDRHTRPQVSSVRLMERSIHSARYIFVENLYRSGKMPEVDYVVLSEWFDWILRNMDVSVDLIVYLRTNPETCYQRLKKRCREEEKVIPLEYLEAIHHLHEEWLIKGSLFPMAAPVLVIEADHHMERMLELFEQNRDRILTPENRKHCP
# Legend:
# TK2-N93D/L109F = target: T1, TK2-N93D/L109F; assay: Kinetic analyses of recombinant TK2 (NADH-dependent enzyme coupled assay), TK2-N93D/L109F; format: biochemical
# Experimental: FIG. 34 provides a table that illustrates the kinetics of the phosphorylation of D and L-nucleosides by the TK2 mutants. Kinase assays were performed with recombinant protein with 200 μM of the listed substrate.
# TK2-N93D = target: T2, TK2-N93D; assay: Kinetic analyses of recombinant TK2 (NADH-dependent enzyme coupled assay), TK2-N93D; conditions: 37° C., 1 mM ATP
# Experimental: (§1) A NADH-dependent enzyme coupled assay (see, e.g. Agarwal, K. C., et al. (1978) Methods Enzymol. 51, 483-490) was used. Using a Cary UV spectrophotometer, measurements were made in triplicate at 37° C. in a buffer containing 100 mM Tris, pH 7.5, 100 mM KCl, 5 mM MgCl2, and 1 mM ATP. For data in which kobs is given, a single nucleoside concentration of 200 μM was used. For data in which both Km and kcat are given, the nucleoside concentration was varied between 15 and 500 μM. TK2 concentration in the cuvette was 400 nM. Data were fit to the Michaelis-Menten equation using SigmaPlot. […] Therefore, all of the kinetic data using the Michaelis-Menten equation without the Hill coefficient is presented.
# TK2-L109F = target: T3, TK2-L109F; assay: Kinetic analyses of recombinant TK2 (NADH-dependent enzyme coupled assay), TK2-L109F; conditions: 37° C., 1 mM ATP
# Experimental: as §1
# [1] = Biodistribution of PET reporter probes in mice (microPET/CT); format: in vivo, C57/BL6 mice; conditions: for biodistribution in mice: C57/BL6 mice, FIG. 25B, no retention in normal tissues except clearance routes (GI tract, bladder)
# Experimental: To identify candidate PRPs, eight nucleoside analogs (FIG. 7A) were synthesized that were amenable to ^18F labeling (the first criterion for PRPs). To identify PRP candidates with rapid clearance from normal tissues and low overall background (second criterion for PRGs), biodistribution studies in mice were performed. It was observed that natural (D) nucleosides had higher background than non-natural (L) nucleoside analogs. […] The next step was to identify a human nucleoside kinase that phosphorylates L-[^18F]FMAU and L-[^18F]FEAU, and can be converted into a new PRG that matches four criteria:
# Initially, a group of nucleoside analogs amenable to fluorine-18 labeling were identified. These PET tracers, 5 of which were novel, were then screened to determine their biodistribution in C57/BL6 mice (n=3 for each PET tracer) through dynamic microPET scans. […] Rational design is utilized to introduce mutations into human nucleoside kinase thymidine kinase 2 (TK2) to improve the affinity of the kinase for the top candidate probe. The sensitivity and specificity of the novel PET reporter probe/gene pair was then determined in vitro and in vivo using a murine cancer model.
# Animal studies were approved and carried out according to specific guidelines. C57/BL6 mice were injected with the indicated probe and underwent micro-PET/CT analyses at 1- and 3-h post probe injection (Inveon, Siemens Medical Solutions USA Inc.; microCAT; Imtek Inc.). For tumor imaging studies, SCID mice were injected subcutaneously on day −7 in the right and left flanks with 1×10^6 L1210-PRG-expressing cells in 50% v/v phosphate-buffered saline and 50% v/v Matrigel™ (BD Biosciences). For imaging experiments, mice were kept warm and under gas anesthesia (2% v/v isoflurane) and were injected intravenously with 200 μCi of ^18F-labeled probes. A 3-h interval was allowed between probe administration and microPET/CT scanning Static microPET images were acquired for 600 s. Image data were evaluated in three-dimensional histograms and reconstructed with a zoom factor of 2.1 using three-dimensional ordered set expectation maximization (OSEM) with 2 iterations followed by MAP (maximum a posteriori) reconstruction with 18 iterations (beta=0.1). Images were analyzed using OsiriX Imaging Software Version 3.8.
# Baf-3 cells = assay: Test of mutant htk2 reporter genes in Baf-3 cells; format: cell-based
# Description: The sensitivity of the described mutant htk2 imaging reporter genes can be evaluated through cell culture assays and PET imaging in mouse tumor models. […] Further tests regarding the effect of expressing these reporter genes on various cells can be used to determine other potential targets. […] Several enhanced htk2 mutant reporter genes have been designed and tested. Though the examples herein describe different probes and investigate the L probes mainly in mice, other mammals and in particular, humans are also within the scope of the invention. Silico models can be used to derive additional enhanced mutants from human htk2.
# TK1 = assay: [3H]dT uptake inhibition assay (competition with thymidine for TK1); format: cell-based
# Description: FIG. 6 provides a graph that illustrates data regarding an assay to determine whether candidate probes compete with thymidine for TK1.
# Further evaluations can be carried out to precisely assess the affinity of these candidate probes for purified recombinant TK1.
# [2] = Microsomal stability (glucuronidation conditions); format: in vitro ADME; conditions: glucuronidation conditions (data not shown)
# Description: Regarding condition (d), one has obtained the microsomal stability profiles for 3 out of 4 compounds (FCU, FBU and FddUrd using the glucuronidation conditions).
# L1210 cells = assay: Effect of PRG overexpression on growth and dNTP pools of L1210 cells; format: cell-based, murine
# Experimental: FIG. 9 provides graphs of data that illustrate how the overexpression of sr39tk affects cell growth and intracellular dNTP pools. L1210 cells were engineered to express: TK2-N93D (▪), TK2 (▴), HSV1-sr39tk (▾), and control vector eYFP (♦). Various graphs show the growth of the L1210 cells in (A) regular media and (B) regular media supplemented with 10 μM thymidine (dT). Other graphs show total cellular dNTP pools (measured by LC-MS) in cells grown in (C) regular media and (D) regular media supplemented with 10 μM dT; (*=below limit of detection).
# L1210 cells transduced to overexpress the listed genes were grown in RPMI media (+/−10 μM dT) for 48 hours. The cells were then harvested and pyrimidine nucleotide pools were obtained via […].
# To overcome the negative feedback limitation of TK2, a point mutation-N93D, was engineered. The work done by Piskur and colleagues on the structurally related Drosophila melanogaster deoxyribonucleoside kinase (see, e.g. Welin, M., et al. FEBS J 272:3733-3742, 2005) led one to predict that the N93D mutation would reduce the feedback inhibition of TK2 by dTTP. […] We then determined whether the enhanced resistance to feedback inhibition translates into improved TK2-N93D catalytic activity towards the L-[^18F]FMAU substrate. […]
molecule,measurement,setting,value
"Cc1cn([C@H]2C[C@H](O)[C@@H](CO)O2)c(=O)[nH]c1=O [D-dT, D-thymidine]",decrease of kcat compared with TK2,"TK2-N93D/L109F; 37° C., 1 mM ATP",49%
same,decrease of kcat relative to WT TK2,TK2-N93D,77%
same,decrease of kcat/Km compared with WT TK2,TK2-N93D,60%
same,change of Km by the L109F mutation,TK2-L109F,decrease in the Km
CCc1cn([C@H]2O[C@@H](CO)[C@H](O)[C@H]2F)c(=O)[nH]c1=O [L-[^18F]FEAU],overall background (biodistribution),"[1]; candidate 18F nucleoside analog probes in mice, FIG. 7B",lowest overall background
same,test of reporter system with probe,Baf-3 cells,successfully tested
Cc1cn([C@@H]2C[C@@H](O)[C@H](CO)O2)c(=O)[nH]c1=O [L-dT],increase of kcat compared with TK2,"TK2-N93D/L109F; 37° C., 1 mM ATP",54%
same,decrease of kcat relative to WT TK2,TK2-N93D,48%
same,change of Km by the L109F mutation,TK2-L109F,decrease in the Km
"O=c1[nH]c(=O)n([C@H]2C[C@H]([18F])[C@@H](CO)O2)cc1Br [^18F-FBU, 3′-[^18F]fluoro-2′,3′-dideoxy-5-bromouridine]",biodistribution in mice,[1],excellent biodistribution
same,phosphorylation by endogenous mammalian thymidine kinases,TK1,cannot be phosphorylated
same,microsomal stability over time,[2],decrease stability over time
"O=c1[nH]c(=O)n([C@H]2C[C@H]([18F])[C@@H](CO)O2)cc1Cl [^18F-FCU, 3′-[^18F]fluoro-2′,3′-dideoxy-5-chlorouridine]",biodistribution in mice,[1],excellent biodistribution
same,phosphorylation by endogenous mammalian thymidine kinases,TK1,cannot be phosphorylated
same,microsomal stability over time,[2],only FBU showed decrease stability over time
"O=c1[nH]c(=O)n([C@H]2C[C@H]([18F])[C@@H](CO)O2)cc1F [^18F-FFU, 3′-[^18F]fluoro-2′,3′-dideoxy-5-fluorouridine]",biodistribution in mice,[1],excellent biodistribution
same,phosphorylation by endogenous mammalian thymidine kinases,TK1,cannot be phosphorylated
"O=c1ccn([C@H]2C[C@H]([18F])[C@@H](CO)O2)c(=O)[nH]1 [^18F-FddUrd, 3′-[^18F]fluoro-2′,3′-dideoxy-uridine]",biodistribution in mice,[1],excellent biodistribution
same,phosphorylation by endogenous mammalian thymidine kinases,TK1,cannot be phosphorylated
same,microsomal stability over time,[2],only FBU showed decrease stability over time
"Nc1ccn([C@H]2C[C@H](O)[C@@H](CO)O2)c(=O)n1 [dC, deoxycytidine]",kobs as percentage of that of TK2,TK2-N93D/L109F; 200 μM substrate,62%
B1,growth rate of transduced cells,L1210 cells,did not affect
same,intracellular dNTP pools,L1210 cells,did not affect
